Data set [1] concerns NCI-H1975. As to the kind of experiment: Antiproliferative activity against human NCI-H1975 cells expressing EGFR T790M/L858R mutant after 72 hrs by SRB assay. The data set is classed as functional, cell-based. Conditions: NCI-H1975, 72 h. (Sulforhodamine B stains cellular protein and so reports cell mass.)
The next data set relates to A-431. As to the kind of experiment: Antiproliferative activity against human A431 cells overexpressing wild-type EGFR after 72 hrs by SRB assay. It is filed as functional, cell-based. Conditions: A-431, 72 h.
Data set [2] has as its target T1, Epidermal growth factor receptor (Homo sapiens, UniProt P00533). As to the kind of experiment: Inhibition of wild-type EGFR (unknown origin) expressed in baculovirus expression system after 1 hr by ELISA. (In an ELISA, binding on a coated surface is turned into a signal by an enzyme label.)
Data set [3] concerns the target Epidermal growth factor receptor (Homo sapiens, UniProt P00533, L858R/T790M). As to the kind of experiment: Inhibition of EGFR T790M/L858R mutant (unknown origin) expressed in baculovirus expression system after 1 hr by ELISA.
Data set [4] has as its system Epidermal growth factor receptor (Homo sapiens), P00533 [L858R,T790M]. As to the kind of experiment: Inhibition of EGFR T790M/L858R mutant in EGF-stimulated human NCI-H1975 cells assessed as decrease in phosphorylated Erk level at 0.001 to 1 uM preincubated for 2 hrs followed by EGF addition for 10 mins by western blot analysis. It is filed as cell-based. (In general: In western blotting, separated proteins are transferred to a membrane and probed.)

Data set [5] has as its system NCI-H1975. As to the kind of experiment: Effect on total Akt level in human NCI-H1975 cells at 0.001 to 1 uM preincubated for 2 hrs followed by EGF addition for 10 mins by western blot analysis. It is filed as ADME, cell-based. Conditions: nci-h1975, 10 min.
In data set [6] the test system is NCI-H1975. As to the kind of experiment: Effect on total EGFR level in human NCI-H1975 cells at 0.001 to 1 uM preincubated for 2 hrs followed by EGF addition for 10 mins by western blot analysis. The data set is classed as ADME, cell-based. Conditions: nci-h1975, 10 min.
Data set [7] concerns NCI-H1975. As to the kind of experiment: Effect on total Erk level in human NCI-H1975 cells at 0.001 to 1 uM preincubated for 2 hrs followed by EGF addition for 10 mins by western blot analysis. It is filed as ADME, cell-based. Conditions: nci-h1975, 10 min.
Data set [8] has as its system Epidermal growth factor receptor (Homo sapiens), P00533 [L858R,T790M]. As to the kind of experiment: Inhibition of EGFR T790M/L858R mutant in EGF-stimulated human NCI-H1975 cells assessed as decrease in phosphorylated Akt level at 0.001 to 1 uM preincubated for 2 hrs followed by EGF addition for 10 mins by western blot analysis. The data set is classed as cell-based.

Data set [9] has as its system NCI-H1975. As to the kind of experiment: Effect on total tubulin level in human NCI-H1975 cells at 0.001 to 1 uM preincubated for 2 hrs followed by EGF addition for 10 mins by western blot analysis. The data set is classed as ADME, cell-based. Conditions: nci-h1975, 10 min.
In data set [10] the test system is Epidermal growth factor receptor (Homo sapiens), P00533 [L858R,T790M]. As to the kind of experiment: Inhibition of EGFR T790M/L858R mutant phosphorylation in EGF-stimulated human NCI-H1975 cells preincubated for 2 hrs followed by EGF addition for 10 mins by western blot analysis. The data set is classed as cell-based.
Epidermal growth factor receptor (Homo sapiens), P00533 [L858R,T790M], sequence (P00533 whole entry T790M/L858R, looked up): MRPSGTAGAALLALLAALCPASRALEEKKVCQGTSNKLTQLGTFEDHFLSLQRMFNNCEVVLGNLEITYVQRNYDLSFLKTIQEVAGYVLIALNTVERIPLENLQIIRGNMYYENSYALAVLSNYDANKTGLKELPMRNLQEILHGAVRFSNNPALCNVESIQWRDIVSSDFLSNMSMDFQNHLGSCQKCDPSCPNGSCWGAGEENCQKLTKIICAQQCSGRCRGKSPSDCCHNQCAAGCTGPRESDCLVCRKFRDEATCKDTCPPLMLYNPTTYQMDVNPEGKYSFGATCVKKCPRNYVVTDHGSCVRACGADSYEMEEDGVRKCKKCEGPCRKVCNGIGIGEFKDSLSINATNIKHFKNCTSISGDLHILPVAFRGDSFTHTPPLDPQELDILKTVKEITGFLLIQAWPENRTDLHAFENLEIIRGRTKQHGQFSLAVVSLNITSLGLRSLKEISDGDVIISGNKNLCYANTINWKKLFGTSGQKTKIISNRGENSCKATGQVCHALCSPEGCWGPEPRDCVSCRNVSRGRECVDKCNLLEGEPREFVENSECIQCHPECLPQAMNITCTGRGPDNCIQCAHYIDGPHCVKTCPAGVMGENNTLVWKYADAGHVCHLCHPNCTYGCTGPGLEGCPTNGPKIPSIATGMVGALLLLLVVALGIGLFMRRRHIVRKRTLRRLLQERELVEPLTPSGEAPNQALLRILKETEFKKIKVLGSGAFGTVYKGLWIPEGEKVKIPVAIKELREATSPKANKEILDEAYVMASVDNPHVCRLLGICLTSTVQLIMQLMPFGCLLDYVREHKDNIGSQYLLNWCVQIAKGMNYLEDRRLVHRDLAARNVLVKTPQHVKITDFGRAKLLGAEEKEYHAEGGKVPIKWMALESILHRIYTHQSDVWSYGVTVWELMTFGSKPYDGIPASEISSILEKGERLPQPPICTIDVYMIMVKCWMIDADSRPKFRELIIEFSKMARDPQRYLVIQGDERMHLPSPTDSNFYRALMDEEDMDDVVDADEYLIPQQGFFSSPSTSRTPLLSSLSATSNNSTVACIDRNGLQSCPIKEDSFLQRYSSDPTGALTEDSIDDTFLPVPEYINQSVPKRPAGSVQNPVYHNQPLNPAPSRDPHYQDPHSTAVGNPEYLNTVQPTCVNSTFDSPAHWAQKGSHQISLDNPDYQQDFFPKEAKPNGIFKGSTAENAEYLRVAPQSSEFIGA
Data set [11] has the same test system. As to the kind of experiment: Inhibition of EGFR T790M/L858R mutant in EGF-stimulated human NCI-H1975 cells assessed as decrease in phosphorylated Akt level preincubated for 2 hrs followed by EGF addition for 10 mins by western blot analysis. The data set is classed as cell-based.
In data set [12] the target is T1, Epidermal growth factor receptor. As to the kind of experiment: Inhibition of wild-type EGFR phosphorylation in EGF-stimulated human A431 cells preincubated for 2 hrs followed by EGF addition for 10 mins by western blot analysis. It is filed as cell-based. Conditions: A-431.
Data set [13] relates to Epidermal growth factor receptor (Homo sapiens), P00533 [L858R,T790M]. As to the kind of experiment: Inhibition of EGFR T790M/L858R mutant in EGF-stimulated human NCI-H1975 cells assessed as decrease in phosphorylated Erk level preincubated for 2 hrs followed by EGF addition for 10 mins by western blot analysis. The data set is classed as cell-based.
For data set [14], the target named is T1, Epidermal growth factor receptor. As to the kind of experiment: Inhibition of wild-type EGFR in EGF-stimulated human A431 cells assessed as decrease in phosphorylated Erk level preincubated for 2 hrs followed by EGF addition for 10 mins by western blot analysis. The data set is classed as cell-based. Conditions: A-431.
For data set [15] the target is unchanged. As to the kind of experiment: Inhibition of wild-type EGFR in EGF-stimulated human A431 cells assessed as decrease in phosphorylated Akt level preincubated for 2 hrs followed by EGF addition for 10 mins by western blot analysis. The data set is classed as cell-based. Conditions: A-431.

Drawing on ChEMBL document CHEMBL3797107, “Discovery of 5-(methylthio)pyrimidine derivatives as L858R/T790M mutant selective epidermal growth factor receptor (EGFR) inhibitors” (Bioorg Med Chem, 2016), this text covers IC50, inhibition and Activity for 13 compounds.

Active and inactive are the calls of the source. The rule behind the calls is not given here.

T1 sequence (P00533 whole entry): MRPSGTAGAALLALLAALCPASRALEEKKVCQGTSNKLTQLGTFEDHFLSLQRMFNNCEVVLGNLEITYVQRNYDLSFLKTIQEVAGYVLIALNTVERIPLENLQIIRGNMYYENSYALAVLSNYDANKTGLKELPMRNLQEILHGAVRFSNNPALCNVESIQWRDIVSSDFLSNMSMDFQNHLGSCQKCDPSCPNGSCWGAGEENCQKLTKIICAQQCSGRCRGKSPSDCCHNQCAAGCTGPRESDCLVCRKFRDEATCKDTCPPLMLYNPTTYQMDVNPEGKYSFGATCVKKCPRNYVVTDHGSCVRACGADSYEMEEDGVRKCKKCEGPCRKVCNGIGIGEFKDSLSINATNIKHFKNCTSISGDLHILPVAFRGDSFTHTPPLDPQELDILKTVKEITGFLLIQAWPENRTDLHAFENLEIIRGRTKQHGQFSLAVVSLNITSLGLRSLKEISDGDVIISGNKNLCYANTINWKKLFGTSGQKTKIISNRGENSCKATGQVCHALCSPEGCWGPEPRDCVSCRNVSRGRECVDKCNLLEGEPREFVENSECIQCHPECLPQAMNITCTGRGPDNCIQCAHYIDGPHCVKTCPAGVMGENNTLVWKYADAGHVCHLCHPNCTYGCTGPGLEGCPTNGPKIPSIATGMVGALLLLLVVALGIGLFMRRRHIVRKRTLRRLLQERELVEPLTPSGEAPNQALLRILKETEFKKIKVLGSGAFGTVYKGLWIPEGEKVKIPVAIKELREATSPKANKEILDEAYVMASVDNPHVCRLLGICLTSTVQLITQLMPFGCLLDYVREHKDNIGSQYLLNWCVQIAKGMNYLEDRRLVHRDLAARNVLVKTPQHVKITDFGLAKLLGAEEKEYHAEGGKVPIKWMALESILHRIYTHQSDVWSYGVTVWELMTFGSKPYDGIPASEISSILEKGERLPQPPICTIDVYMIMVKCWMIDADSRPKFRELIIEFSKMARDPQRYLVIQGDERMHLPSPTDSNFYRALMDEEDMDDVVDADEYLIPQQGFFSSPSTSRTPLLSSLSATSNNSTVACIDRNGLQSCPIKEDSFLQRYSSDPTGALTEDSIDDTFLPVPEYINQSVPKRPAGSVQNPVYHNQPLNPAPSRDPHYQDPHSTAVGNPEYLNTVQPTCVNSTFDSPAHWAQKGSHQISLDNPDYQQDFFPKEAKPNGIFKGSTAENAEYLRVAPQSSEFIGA
Epidermal growth factor receptor (Homo sapiens, UniProt P00533, L858R/T790M), sequence (P00533 25-1210 T790M/L858R limits assumed): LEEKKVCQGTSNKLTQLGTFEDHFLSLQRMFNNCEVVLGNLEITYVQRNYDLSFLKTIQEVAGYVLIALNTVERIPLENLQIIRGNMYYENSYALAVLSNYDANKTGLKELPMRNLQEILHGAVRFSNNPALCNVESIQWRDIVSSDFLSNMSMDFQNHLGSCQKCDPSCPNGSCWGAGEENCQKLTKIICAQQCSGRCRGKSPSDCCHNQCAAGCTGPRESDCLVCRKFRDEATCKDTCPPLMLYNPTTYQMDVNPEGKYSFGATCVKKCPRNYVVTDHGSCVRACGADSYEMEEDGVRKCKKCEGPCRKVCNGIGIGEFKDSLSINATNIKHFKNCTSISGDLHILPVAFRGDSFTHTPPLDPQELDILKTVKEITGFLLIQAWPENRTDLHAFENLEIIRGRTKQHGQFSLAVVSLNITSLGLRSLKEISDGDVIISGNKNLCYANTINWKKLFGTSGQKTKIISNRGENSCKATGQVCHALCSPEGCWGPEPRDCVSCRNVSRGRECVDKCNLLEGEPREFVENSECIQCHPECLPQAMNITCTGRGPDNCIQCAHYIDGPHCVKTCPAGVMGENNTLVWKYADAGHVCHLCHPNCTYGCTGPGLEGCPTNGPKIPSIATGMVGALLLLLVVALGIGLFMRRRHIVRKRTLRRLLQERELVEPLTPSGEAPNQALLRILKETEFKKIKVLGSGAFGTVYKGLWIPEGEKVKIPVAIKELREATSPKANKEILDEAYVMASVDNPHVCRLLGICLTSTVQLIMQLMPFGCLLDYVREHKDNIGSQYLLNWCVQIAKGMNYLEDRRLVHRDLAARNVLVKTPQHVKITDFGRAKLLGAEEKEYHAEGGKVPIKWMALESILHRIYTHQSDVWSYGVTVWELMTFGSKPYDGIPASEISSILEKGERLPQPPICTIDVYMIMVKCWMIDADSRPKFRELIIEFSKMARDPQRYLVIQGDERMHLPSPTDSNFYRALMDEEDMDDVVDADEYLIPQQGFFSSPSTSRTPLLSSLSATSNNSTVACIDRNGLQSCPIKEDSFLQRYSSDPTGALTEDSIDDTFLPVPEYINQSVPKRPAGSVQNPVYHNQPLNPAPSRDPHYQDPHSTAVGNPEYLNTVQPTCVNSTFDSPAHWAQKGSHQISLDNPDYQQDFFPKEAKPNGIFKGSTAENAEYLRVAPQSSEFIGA

The term IC50 denotes the concentration that inhibits the measured activity by half. Turning to `C=CC(=O)Nc1cccc(Oc2nc(Nc3ccc(N4CCN(C)CC4)cc3OC)ncc2Cl)c1`, in the data set with NCI-H1975 [1], half-maximal inhibition (IC50) required 0.095 µM.

For `C=CC(=O)Nc1cccc(Oc2nc(Nc3ccc(N4CCN(C(=O)C(C)(C)C)CC4)cc3OC)ncc2SC)c1`, the IC50 was found to be 9.22 µM in the data set with A-431, 0.577 µM with NCI-H1975 [1], 0.41 µM in data set [2] and 0.0096 µM in data set [3].

In the case of `C=CC(=O)Nc1cccc(Oc2nc(Nc3ccc(N4CCN(C)CC4)cc3OC)ncc2SC)c1`, the inhibition result in data set [4] and in data set [8] was “Active” each time. Further, the IC50 in the data set on A-431 was determined as 3.88 µM; with NCI-H1975 [1] it was 0.167 µM; in data set [2], 0.272 µM; in data set [3] it was 0.0004 µM. Moreover, the Activity entry with NCI-H1975 [5], in the data set on NCI-H1975 [6], in the data set with NCI-H1975 [7] and in the data set with NCI-H1975 [9] was “Non-toxic” throughout. Also, the inhibition result in [10] was “Dose-dependent effect”.

As to `C=CC(=O)Nc1cccc(Oc2nc(Nc3ccc(N4CCN(C(=O)CC)CC4)cc3OC(F)F)ncc2SC)c1`, the IC50 with A-431 was 4.92 µM; in the data set on NCI-H1975 [1] it was 0.088 µM; in data set [2], 0.0464 µM; in data set [3] it was 0.0037 µM. Also, the inhibition result in data set [11], in data set [12], in [13], in data set [14], in data set [10] and in data set [15] was “Dose-dependent effect” each time.

For the compound `C=CC(=O)Nc1cccc(Oc2nc(Nc3ccc(N4CCN(C(C)=O)CC4)cc3OC)ncc2SC)c1`, the IC50 came out at 4.58 µM in the data set on A-431, 0.194 µM in the data set on NCI-H1975 [1], 0.0875 µM in data set [2] and 0.0007 µM in data set [3].

In the case of `C=CC(=O)Nc1cccc(Oc2nc(Nc3ccc(N4CCCN(C(C)=O)CC4)cc3OC)ncc2SC)c1`, the IC50 was 4.29 µM in the data set on A-431, 0.573 µM in the data set on NCI-H1975 [1], 0.389 µM in [2] and 0.0018 µM in data set [3].

With `C=CC(=O)Nc1cccc(Oc2nc(Nc3ccc(N4CCN(S(C)(=O)=O)CC4)cc3OC)ncc2SC)c1`, the IC50 in the data set with A-431 was greater than 10 µM; with NCI-H1975 [1] it was 1.69 µM; in data set [2], 0.73 µM; in [3], 0.0073 µM.

In the case of `C=CC(=O)Nc1cccc(Oc2nc(Nc3ccc(N4CCN(C(=O)C(F)(F)F)CC4)cc3OC)ncc2SC)c1`, the IC50 in the data set on A-431 worked out at 1.19 µM; in the data set on NCI-H1975 [1] it was 0.404 µM; in data set [2], 0.248 µM; in data set [3], 0.0044 µM.

With `C=CC(=O)Nc1cccc(Oc2nc(Nc3ccc(N4CCN(C(=O)C(C)C)CC4)cc3OC)ncc2SC)c1`, the IC50 in the data set on A-431 was 2.01 µM; in the data set on NCI-H1975 [1], 0.2 µM; in [2], 0.174 µM; in data set [3] it was 0.0036 µM.

Turning to `C=CC(=O)Nc1cccc(Oc2nc(Nc3ccc(N4CCN(C(=O)CC)CC4)cc3OC)ncc2SC)c1`, the IC50 with A-431 turned out to be 4.42 µM; in the data set with NCI-H1975 [1], 0.148 µM; in [2] it was 0.154 µM; in data set [3] it was 0.0058 µM. The inhibition result in data set [11], in [12], in [13], in [14], in data set [10] and in data set [15] was “Dose-dependent effect” throughout.

For `C=CC(=O)Nc1cccc(Oc2nc(Nc3ccc(N4CCN(C(C)=O)CC4)cc3OC)ncc2C(F)(F)F)c1`, the inhibition entry in data set [4] and in data set [8] was “Active” each time. Further, the IC50 came to 1.89 µM in the data set with A-431 and 0.088 µM in the data set on NCI-H1975 [1]. The inhibition result in [10] is “Dose-dependent effect”.

Turning to `C=CC(=O)Nc1cc(Nc2nccc(-c3cn(C)c4ccccc34)n2)c(OC)cc1N(C)CCN(C)C` [OSIMERTINIB], the IC50 is […] with A-431 and […] in the data set with NCI-H1975 [1].

Consider `C=CC(=O)Nc1cccc(Oc2nc(Nc3ccc(N4CCN(C(C)=O)CC4)cc3OC(F)F)ncc2SC)c1`, for which the IC50 in the data set on A-431 was 4.65 µM; in the data set with NCI-H1975 [1], 0.02 µM; in data set [2], 0.0388 µM; in [3], 0.0028 µM. For the same compound, the inhibition entry in [11], in data set [12], in data set [13], in data set [14], in data set [10] and in data set [15] was “Dose-dependent effect” in each case.
